Entries after “also recorded” stand apart in the source; their conditions may differ.
Key:
Type in all cases: cell-based
[1] = test system: indicated proteins fused to mutant FKBP* with an HA tag; assay: Immunoblot of proteins fused to FKBP* in MV4;11 leukemia cells; conditions: MV4;11 cells, 16 hours, indicated concentrations
From the text: Immunoblots of MV4;11 leukemia cells expressing indicated proteins fused to mutant FKBP* with an HA tag.
To test the general utility of the dTAG technology across several protein types, the indicated proteins fused to the dTAG in MV4;11 leukemia cells were expressed.

[2] = test system: KRAS signaling (pMEK and pAKT); assay: Immunoblot of downstream surrogates of KRAS signaling in NIH3T3 cells expressing dTAG-KRAS
Protocol: (§1) FIG. 11 is an immunoblot of NIH3T3 cells expressing KRASG12V allele fused to FKBP* in the N-terminus or C-terminus. Cells were treated with 500 nM dFKBP7 for the indicated time. Cells were harvested and immunoblotted to measure degradation of FKBP*-KRASG12V and downstream surrogates of KRAS signaling (e.g. pMEK and pAKT).
(§2) FIG. 12 is an immunoblot of NIH3T3 cells expressing FKBP* fused to the N-terminus of KRASG12V treated with 1 uM of the indicated dFKBP heterobifunctional compounds for 24 hours. Cells were harvested and immunoblotted to measure degradation of FKBP*-KRASG12V and downstream surrogates of KRAS signaling (e.g. pMEK and pAKT).
as §2, with “FIG. 13” for “FIG. 12”, “with” for “with 1 uM of”, “indicated concentrations of dFKBP13” for “indicated dFKBP heterobifunctional compounds”
(§3) FIG. 14 is an immunoblot of NIH3T3 cells expressing FKBP* fused to the N-terminus of KRASG12V treated with 1 uM dFKBP13 for the indicated time. Cells were harvested and immunoblotted to measure degradation of FKBP*-KRASG12V and downstream surrogates of KRAS signaling (e.g. pMEK and pAKT).
(§4) Cells were treated with 500 nM dFKBP7 for the indicated time. Cells were harvested and immunoblotted to measure degradation of FKBP*-KRAS and downstream surrogates of KRAS signaling (e.g. pMEK and pAKT).
(§5) In an effort to identify the best performing dFKBP molecule, dTAG-KRAS degradation was profiled across a series of dFKBP molecules. Western blotting of NIH3T3 cells expressing dTAG-KRASG12V were treated with 1 μM of the indicated dFKBP heterobifunctional compounds for 24 hours. Cells were harvested and immunoblotted to measure degradation of FKBP*-KRAS and downstream surrogates of KRAS signaling (e.g. pMEK and pAKT).
(§6) Western blotting of NIH3T3 cells expressing FKBP* fused to the N-terminus of KRAS treated with the indicated concentrations of dFKBP13 for 24 hours. Cells were harvested and immunoblotted to measure degradation of FKBP*-KRAS and downstream surrogates of KRAS signaling (e.g. pMEK and pAKT).
(§7) To evaluate the kinetic control of targeted degradation of dTAG-KRAS, dFKBP13 was administered by increased duration. Western blotting of NIH3T3 cells expressing FKBP* fused to the N-terminus of KRAS treated with 1 μM dFKBP13 for the indicated time. Cells were harvested and immunoblotted to measure degradation of FKBP*-KRAS and downstream surrogates of KRAS signaling (e.g. pMEK and pAKT).
(§8) The dFKBP13 heterobifunctional compound potently degrades dTAG-KRAS mutant alleles. NIH3T3 cells were engineered to express KRAS alleles either WT or mutant forms of amino acid glycine 12 (G12C, G12D, and G12V). Western blotting of NIH3T3 cells expressing dTAG fused to the N-terminus of KRAS alleles were treated with 1 uM of dFKBP13 for 24 hours. Cells were harvested and immunoblotted to measure degradation of dTAG-KRAS and downstream surrogates of KRAS signaling (e.g. pMEK and pAKT).
as §8, with “express” for “express KRAS alleles”, “KRAS alleles (G13D, Q61L,” for “forms of amino acid glycine 12 (G12C, G12D,”, “Q61R).” for “G12V).”

FKBP*-KRASG12V = assay: Immunoblot of FKBP*-KRASG12V (dTAG-KRAS) degradation in NIH3T3 cells; conditions: for degradation of FKBP*-KRASG12V: 24 hours
Protocol: as §1, §2
as §3, with “13” for “14”, “the indicated concentrations of” for “1 uM”, “24 hours.” for “the indicated time.”
as §3
FIG. 15 is an immunoblot of NIH3T3 cells expressing dTAG-KRASG12V pretreated with 1 uM Carfilzomib (proteasome inhibitor), 0.5 uM MLN4924 (neddylation inhibitor), and 10 uM Lenalidomide (CRBN binding ligand) for two hours prior to a 4 hour treatment with dFKBP13.
as §4, §5, §6, §7
NIH3T3 cells (CRBN-WT) were engineered to express dTAG-KRASG12V. Cells were pretreated with 1 uM Carfilzomib (proteasome inhibitor), 0.5 uM MLN4924 (neddylation inhibitor), and 10 uM Lenalidomide (CRBN binding ligand) for two hours prior to a 4 hour treatment with dFKBP13. Lysates were prepared and western immunoblot analysis performed. […] Pre-treatment with the NAE1 inhibitor MLN4924 rescued dTAG-KRASG12V expression establishing dependence on CRL activity, as expected for cullin-based ubiquitin ligases that require neddylation for processive E3 ligase activity. Pre-treatment with excess Lenalidomide abolished dFKBP13-dependent dTAG-KRASG12V degradation, confirming the requirement of CRBN engagement for degradation.

## CC[C@H](C(=O)N1CCCC[C@H]1C(=O)O[C@H](CCc1ccc(OC)c(OC)c1)c1cccc(OCC(=O)NCCCOCCOCCOCCCNC(=O)COc2cccc3c2C(=O)N(C2CCC(=O)NC2=O)C3=O)c1)c1cc(OC)c(OC)c(OC)c1 (stereo partly shown) [dFKBP7]
[1]
  degradation of proteins fused to dTAG: degradation was observed with nanomolar concentrations
[2]; NIH3T3 N-terminal dTAG-KRAS, 500 nM, indicated time
  p-AKT signal: downstream decrease in p-AKT signal
FKBP*-KRASG12V; NIH3T3, 500 nM, indicated time
  degradation of N-terminal dTAG-KRAS (FKBP*-KRASG12V): potent degradation; also recorded: degraded

## CC[C@H](C(=O)N1CCCC[C@H]1C(=O)O[C@H](CCc1ccc(OC)c(OC)c1)c1cccc(OCC(=O)NCCCCCCOc2cccc3c2C(=O)N(C2CCC(=O)NC2=O)C3=O)c1)c1cc(OC)c(OC)c(OC)c1 (stereo partly shown) [dFKBP13]
[1]
  degradation of proteins fused to dTAG: degradation was observed with nanomolar concentrations
[2]; NIH3T3 FKBP*-KRASG12V, 1 uM, 24 hours
  downstream signaling (pMEK and pAKT): inhibition of downstream signaling
[2]; NIH3T3 FKBP*-KRASG12V, 1 uM, post treatment
  time to inhibition of downstream signaling: ≤ 1 h
[2]; NIH3T3 dTAG-KRAS WT, G12C, G12D, G12V, 1 uM, 24 hours
  downstream signaling (pMEK and pAKT): potently inhibits downstream signaling
[2]; NIH3T3 dTAG-KRAS WT, G13D, Q61L, Q61R, 1 uM, 24 hours
  downstream signaling (pMEK and pAKT): potently inhibits downstream signaling
[2]; read-out: IC50 of inhibition of downstream signaling, NIH3T3 FKBP*-KRASG12V, 24 hours
  IC50: > 100 nM
FKBP*-KRASG12V; NIH3T3, 1 uM
  degradation of FKBP*-KRASG12V: potent degradation
FKBP*-KRASG12V; NIH3T3, 1 uM, post treatment
  time to degradation of FKBP*-KRASG12V: ≤ 1 h
FKBP*-KRASG12V; NIH3T3, indicated concentrations
  degradation of FKBP*-KRASG12V: potent degradation
FKBP*-KRASG12V; NIH3T3 CRBN-WT, 4 hour treatment after inhibitor pretreatment
  mechanism of dTAG-KRASG12V degradation: CRBN- and proteasome-dependent degradation
